# Assay results: patent US4051253A, “Microbicidal nitrofuryl compounds” (Byk Gulden Lomberg Chemische Fabrik GmbH, priority 1974, dated 1977)
# Read-outs that look alike come from different tables or passages of the source.
# Assays:
# [1] = test system: Serratia marcescens strain HY/a 21
# [2] = test system: enterococci; assay: microbe, parasite or virus in culture; format: cell-based; conditions: for MIC: read-out: Minimum inhibiting concentration (MHK), series dilution test
# [3] = in vivo; conditions: mouse
# [4] = test system: S. typhimurium G 46
# [5] = test system: streptoc. group B 779; assay: microbe, parasite or virus in culture; format: cell-based; conditions: for MBC: read-out: Concentration from which subcultures no longer started; for MIC: read-out: Minimum inhibiting concentration (MHK), series dilution test
# [6] = test system: C. Albicans 49; assay: microbe, parasite or virus in culture; format: cell-based; conditions: Candida albicans; for MIC: read-out: Minimum inhibiting concentration (MHK), series dilution test
# [7] = test system: E. coli 6106; assay: microbe, parasite or virus in culture; format: cell-based; conditions: for MIC: read-out: Minimum inhibiting concentration (MHK), series dilution test
# [8] = test system: streptococci group A 807; assay: microbe, parasite or virus in culture; format: cell-based; conditions: for MIC: read-out: Minimum inhibiting concentration (MHK), series dilution test
# [9] = test system: 9 bacteria and 2 yeast strains; assay: In vitro tests with 9 bacteria and 2 yeast strains (summary); format: cell-based; conditions: Table 2
# [10] = test system: Staph. aur. PCI 1203; assay: microbe, parasite or virus in culture; format: cell-based; conditions: for MBC: read-out: Concentration from which subcultures no longer started; for MIC: read-out: Minimum inhibiting concentration (MHK), series dilution test
# [11] = test system: Ps. aeruginosa 2; assay: microbe, parasite or virus in culture; format: cell-based; conditions: for MIC: read-out: Minimum inhibiting concentration (MHK), series dilution test
# [12] = test system: Trichomonas foetus; assay: Infection tests with Trichomonas foetus in mice; format: in vivo; conditions: for % of Animals Dying After Infection (Mean Value): stomach tube, 3 successive days, NMRI mice
# [13] = test system: Klebs. pneum. PCI 602; assay: microbe, parasite or virus in culture; format: cell-based; conditions: for MBC: read-out: Concentration from which subcultures no longer started; for MIC: read-out: Minimum inhibiting concentration (MHK), series dilution test
# [14] = test system: Staph. aur. SG 511; assay: microbe, parasite or virus in culture; format: cell-based; conditions: for MIC: read-out: Minimum inhibiting concentration (MHK), series dilution test
# [15] = test system: streptococci group C 805; assay: microbe, parasite or virus in culture; format: cell-based; conditions: for MBC: read-out: Concentration from which subcultures no longer started; for MIC: read-out: Minimum inhibiting concentration (MHK), series dilution test
# [16] = test system: C. Paracrusei 45; assay: microbe, parasite or virus in culture; format: cell-based; conditions: for MBC: read-out: Concentration from which subcultures no longer started; for MIC: read-out: Minimum inhibiting concentration (MHK), series dilution test
# [17] = 24 h, read-out: Concentration from which subcultures no longer started, subcultures applied after 24 h, read after 24 h
# [18] = 48 h, read-out: Concentration from which subcultures no longer started, subcultures applied after 48 h, read after 48 h
# [19] = read-out: Concentration from which subcultures no longer started, subcultures applied after 24 h, read after 48 h
# [20] = read-out: Concentration from which subcultures no longer started, subcultures applied after 48 h, read after 24 h
# [21] = subcultures applied after 48 h, read after 24 h
structure (smiles),measurement,setting,value
"O=C1CCO1 [β-propiolactone, reference compound]","Mutants, Test",[1],6.6 × 10^2 colonies/ml
same,Mutation frequency,[1],3.4 × 10^-6
"Cc1ccccc1C(=O)NN=CC=Cc1ccc([N+](=O)[O-])o1 [A, 5-nitro-2-[(o-toluoylhydrazono)propen-1-yl]furan]",MBC,[2]; [17],250 µg/mL
same,MIC,[2]; 24 h,62.5 µg/mL
same,MBC,[2]; [18],500 µg/mL
same,MIC,[2]; 48 h,250 µg/mL
same,MBC,[2]; [19],250 µg/mL
same,MBC,[2]; [20],500 µg/mL
same,LD50,[3],> 2000 mg/kg
same,"Mutants/ml, Test",[4]; 200 mg/kg per os,0 Mutants/ml
same,"Mutants/ml, Test",[4]; 400 mg/kg per os,0 Mutants/ml
same,"mutagenicity, host mediated assay (in words)",[4]; Table 3b,no mutants induced by A are observed
same,Mutation frequency in test animals,[4]; in vivo,0
same,MBC,[5]; 24 h,500 µg/mL
same,MIC,[5]; 24 h,250 µg/mL
same,MBC,[5]; 48 h,500 µg/mL
same,MIC,[5]; 48 h,500 µg/mL
same,MBC,[5],500 µg/mL
same,Concentration from which subcultures no longer started,[5]; [21],500 µg/mL
same,MBC,[6]; [17],62.5 µg/mL
same,MIC,[6]; 24 h,62.5 µg/mL
same,MBC,[6]; [18],125 µg/mL
same,MIC,[6]; 48 h,62.5 µg/mL
same,MBC,[6]; [19],62.5 µg/mL
same,MBC,[6]; [20],125 µg/mL
same,MBC,"[7]; Escherichia coli, 6106, 24 h, read-out: Concentration from which subcultures no longer started",62.5 µg/mL
same,MIC,"[7]; Escherichia coli, 6106, 24 h",31.2 µg/mL
same,MBC,"[7]; Escherichia coli, 6106, 48 h, read-out: Concentration from which subcultures no longer started",62.5 µg/mL
same,MIC,"[7]; Escherichia coli, 6106, 48 h",62.5 µg/mL
same,MBC,"[7]; Escherichia coli, 6106, read-out: Concentration from which subcultures no longer started",62.5 µg/mL
same,Concentration from which subcultures no longer started,[7]; [21],62.5 µg/mL
same,MBC,[8]; [17],125 µg/mL
same,MIC,[8]; 24 h,31.2 µg/mL
same,MBC,[8]; [18],125 µg/mL
same,MIC,[8]; 48 h,31.2 µg/mL
same,MBC,[8]; [19],125 µg/mL
same,MBC,[8]; [20],62.5 µg/mL
same,Mutation frequency,[1],0
same,"mutagenicity, spot test (in words)",[1]; Table 3a,no mutants induced by A are observed
same,in vitro antibacterial/antiyeast effect compared with metronidazol (in words),[9],substantially more favorable picture
same,MBC,[10]; 24 h,31.2 µg/mL
same,MIC,[10]; 24 h,15.6 µg/mL
same,MBC,[10]; 48 h,31.2 µg/mL
same,MIC,[10]; 48 h,31.2 µg/mL
same,MBC,[10],31.2 µg/mL
same,Concentration from which subcultures no longer started,[10]; [21],31.25 µg/mL
same,MBC,"[11]; Pseudomonas aeruginosa, 2, 24 h, read-out: Concentration from which subcultures no longer started",250 µg/mL
same,MIC,"[11]; Pseudomonas aeruginosa, 2, 24 h",250 µg/mL
same,MBC,"[11]; Pseudomonas aeruginosa, 2, 48 h, read-out: Concentration from which subcultures no longer started",250 µg/mL
same,MIC,"[11]; Pseudomonas aeruginosa, 2, 48 h",250 µg/mL
same,MBC,"[11]; Pseudomonas aeruginosa, 2, read-out: Concentration from which subcultures no longer started",250 µg/mL
same,Concentration from which subcultures no longer started,[11]; [21],250 µg/mL
same,% of Animals Dying After Infection (Mean Value),[12]; 3.12 mg/kg,91.66%
same,% of Animals Dying After Infection (Mean Value),[12]; 6.25 mg/kg,36.33%
same,% of Animals Dying After Infection (Mean Value),[12]; 12.5 mg/kg,3.33%
same,animals survived / survival rate,"[12]; dose of 6.25 mg/kg, mice infected with T. foetus",63.3%
same,activity against T. foetus compared with metronidazol (in words),[12]; infected mice,substantially better activity in mice infected with T. foetus
same,MBC,[13]; 24 h,31.2 µg/mL
same,MIC,[13]; 24 h,7.8 µg/mL
same,MBC,[13]; 48 h,31.2 µg/mL
same,MIC,[13]; 48 h,7.8 µg/mL
same,MBC,[13],31.2 µg/mL
same,Concentration from which subcultures no longer started,[13]; [21],31.25 µg/mL
same,MBC,[14]; [17],125 µg/mL
same,MIC,[14]; 24 h,31.2 µg/mL
same,MBC,[14]; [18],31.2 µg/mL
same,MIC,[14]; 48 h,31.2 µg/mL
same,MBC,[14]; [19],125 µg/mL
same,MBC,[14]; [20],31.2 µg/mL
same,MBC,[15]; 24 h,500 µg/mL
same,MIC,[15]; 24 h,250 µg/mL
same,MBC,[15]; 48 h,500 µg/mL
same,MIC,[15]; 48 h,250 µg/mL
same,MBC,[15],500 µg/mL
same,Concentration from which subcultures no longer started,[15]; [21],500 µg/mL
same,MBC,[16]; 24 h,125 µg/mL
same,MIC,[16]; 24 h,62.5 µg/mL
same,MBC,[16]; 48 h,125 µg/mL
same,MIC,[16]; 48 h,125 µg/mL
same,MBC,[16],125 µg/mL
same,Concentration from which subcultures no longer started,[16]; [21],125 µg/mL
